Structures are written as SMILES.

The source of these data is a melting point compilation (Tetko et al.; mined from patent text by program, amines drawn as free bases though some values may be those of a salt).

As usually defined, the melting point is the temperature, or range, at which the solid turns liquid.

Consider `Nc1c2ccccc2nc2c(=O)[nH][nH]c(=O)c12`, for which the melting point lay in the range of 167 to 168 °C.
With `CSC(=C(N)c1ccc2oc(C)cc2c1)S(C)=O` (centres undefined) the figure was 185 to 186 °C.
As for `CC(C)OCc1cnc2c(N)cccc2c1Cl`, the melting point is 94 to 95 °C.
Regarding `COc1ccc(CN2C(=O)CC2COS(C)(=O)=O)c(OC)c1` (centres undefined), the melting point fell in the range of 71 to 72 °C.
With `COC(=O)Cc1cc(Br)c(Sc2ccc(O)c(Cc3ccc(Cl)nn3)c2)c(Br)c1` the figure was 133 to 135 °C; with `CC(C)CCNCCCN1C(=O)C2(COc3cc4c(cc32)CCO4)c2ccccc21` (centres undefined), 98 to 101 °C; with `COC(=O)c1ccc(SC(Cn2ccnc2)c2ccc(Cl)cc2Cl)cc1` (centres undefined), 121 to 124 °C.
On to `Nc1nc(C(F)(F)F)c(CN2C(=O)C3(COc4cc5c(cc43)OCO5)c3ccccc32)s1` (centres undefined), for which the melting point lay in the range of 165 to 167 °C.
With `c1cncc(-c2ccnc(Nc3cccc(-n4ccnc4)c3)n2)c1` the figure was 95 to 120 °C; with `CC(=O)NC(C(=O)c1ccccc1N)[N+](=O)[O-]` (centres undefined), 178 to 179 °C.
In the case of `NC(C(=O)O)c1ccc(C(=O)O)cc1N1CCCC1` (centres undefined) it was 187 to 190 °C.
With `Nc1ccc(C2CC2)cc1C(=O)O` the figure was 158 °C; with `CSc1cc(C)nc(SC)c1NC(=O)CCCCSc1nc2ccccc2o1`, 147 to 150 °C.
`O=[N+]([O-])c1cnn2c(-c3ccco3)ccnc12` yielded a melting point of 235 to 237 °C.
With `CC(C)(C(=O)O)c1ccc(CCNC(=O)c2ccc(Cl)cc2)cc1` the figure was 234 to 235 °C; with `COC(=O)c1ccc(Oc2cccnc2)c(N)c1`, 101 °C.
The compound `CCOc1ccc2nc(SC(C)(C(=O)O)c3ccccc3)sc2c1` (centres undefined) came in with a melting point of 152 to 153 °C.
On to `CC(=O)NCc1ccc(CN2CCN(c3cccnc3)CC2)cc1`, for which the melting point is 139 to 140 °C.
`CCCCc1nc(CCCC)n(Cc2ccc(-c3ccccc3C(=O)O)cc2)n1` had a melting point of 134 to 135 °C.
With `Nc1ncc2c(n1)CCC(NC(=O)[C@@H]1CCCN1C(=O)[C@@H](Cc1ccccc1)NS(=O)(=O)Cc1ccccc1)C2` (some centres undefined) the figure was 117 to 120 °C; with `CCc1cc(C(=O)O)c2cc(C(C)C)cccc1-2`, 154 to 156 °C; with `NS(=O)(=O)Cc1cccc(NC(=O)c2cnn3c(C(F)(F)F)cc(-c4ccc(C(F)(F)F)cc4)nc23)c1`, 298 °C.
`CCSCc1ccc2[nH]c(NC(=O)OC)nc2c1` yielded a melting point of 229 to 231 °C.
As to `CCCCc1sc(C(=O)O)c2c1-c1nn(C)cc1CC2`, the melting point lay within 244 to 245 °C.
With `Clc1ccc(C(N=C2NCCN2)c2ccccc2)cc1` (centres undefined) the figure was 187 to 189 °C.
In the case of `Nc1ccc(-c2nc3ccccc3s2)cc1Cl` it was 160 to 162 °C; in that of `N#CCC(=O)c1cc(F)c(Cl)cc1Cl`, 98 to 99 °C.
With `CCn1c(-c2ccc(F)cc2)c(OCCOc2ccc(C(C)=C3SC(=O)NC3=O)cc2)c(=O)c2ccccc21` the figure was 214 to 216 °C; with `O=CNc1nc(CSc2ccc([N+](=O)[O-])cc2)cs1`, 158 to 160 °C; with `O=C1NC(=O)C(S(=O)(=O)c2ccc(Cl)cc2)S1` (centres undefined), 143 to 144 °C.
Compound `Cc1cc(NS(=O)(=O)c2ccc(Br)cc2)cc(C)c1S(=O)(=O)C[N+](=O)[O-]` had a melting point of 164 to 166 °C.
Take `Cc1cccc2c(=O)cc(C3CCCC3)oc12`: the melting point is 51 to 52 °C.
With `CCOC(=O)C=Cc1c(C)cc(OC)c(C)c1C` the figure was 42 to 44 °C.
With `COc1nc2sc(S(=O)(=O)Cc3ccccc3)nn2c(=O)c1[N+](=O)[O-]` the figure was 216 to 218 °C; with `Cn1ncc(C(=O)Nc2cc(Cl)ccc2Cl)c1N`, 190 to 191 °C.
With `CCOC(=O)c1cnc2c(cnn2Cc2ccncc2)c1O` the figure was 140 °C; with `CC(C)c1cccc(C(C)C)c1NC(=O)NCC1(c2c(Cl)cccc2Cl)CCC1`, 174 to 177 °C; with `CCCCOC(=O)COc1cc(F)c([N+](=O)[O-])cc1[N+](=O)[O-]`, 113 to 115 °C.
In turn, `CSc1nc(Cl)cc(-c2ccc(C(F)(F)F)cc2)n1` registered a melting point of 93 to 96 °C.
For `Cc1nc2c([N+](=O)[O-])cc(Br)cc2n1C`, the melting point lay within 193 to 195 °C.
`Cc1ccc(-c2nnc(N3CCCCCC3)nc2-c2ccc(C)cc2)cc1`: the melting point lay within 162 to 164 °C.
In the case of `CC(CCOc1ccccc1NS(C)(=O)=O)N1CCC(OC(c2ccccc2)c2ccccc2)CC1` (centres undefined) it was 114 to 116 °C; in that of `O=C(Nc1cc(F)c(-c2cccnc2)c(F)c1)OCc1ccccc1`, 188 to 190 °C.
Compound `COCC1CN(c2ccc3cc(OC(C)=O)ccc3c2)C(=O)O1` (centres undefined) came in with a melting point of 110 to 112 °C.
With `CCCn1cc(Cc2ccc(C(=O)NS(=O)(=O)c3ccccc3Cl)cc2OC)c2cc(CCC(C)C(=O)N(C)C)ccc21` (centres undefined) the figure was 95 to 98 °C.
Take `CCCC(O)(CCC)c1ccc(Cl)c2nc3n(c12)CCCN3c1ccc(Cl)cc1Cl`: the melting point was in the range of 133 to 135 °C.
In the case of `CCOc1nc(=O)c2cc(C(F)(F)F)cc([N+](=O)[O-])c2s1` it was 146 to 148 °C.
With `N=C(CC=O)c1ccccc1` the figure was 80 to 82 °C.
With `Cc1nn(C2CCCC2C)c(N)c1C(N)=O` (centres undefined) the figure was 124 to 126 °C; with `CCc1cc(=O)c2ccc(O)cc2o1`, 189 °C.
Regarding `CCOC(=O)CCc1cn(Cc2ccccc2)nc1O`, the melting point fell in the range of 75 to 76 °C.
In the case of `CCCCCCCN(CCCCCSc1nc(-c2ccc(O)cc2)c(-c2ccc(O)cc2)[nH]1)C(=O)Nc1ccc(F)cc1F` it was 110 to 112 °C; in that of `O=Cc1cccc(Oc2cccc(F)c2)n1`, 42 to 43 °C.
In the case of `O=C(CS(=O)(=O)N1CC=C(c2ccc(-c3ccccc3)cc2)CC1)NO` it was 216 to 218 °C; in that of `c1ccc(C(=NOC(=NC2CCCCC2)NC2CCCCC2)c2ccccc2)cc1`, 104 to 107 °C.
With `C=Cc1ccc(OCc2ccccc2)cc1OCC(=O)c1ccc(OC)cc1` the figure was 93 to 94 °C; with `OCc1ccc2cnn(-c3ccnc(N[C@H]4CC[C@H](O)CC4)n3)c2c1`, 216 to 218 °C; with `Cc1ccc2[nH]c(=O)oc(=O)c2c1`, 257 °C.
`CC(C)(C)OC(=O)CCNC(=O)c1cccc(NC(=O)c2csc(NC(=O)NCc3ccccc3)n2)c1`: the melting point was determined as 212 °C.
In the case of `O=C(CC1CCCCC1)Nc1c(Cl)ccc2nc(N3CC[C@H](NS(=O)(=O)C(F)(F)F)C3)ccc12` it was 178 to 200 °C; in that of `CCCCCCCCCCCCCCCc1cc2cc(C(=O)OC)ccc2[nH]1`, 89 to 92 °C.
With `CCOC(=O)c1cn(C(C)CCl)c2c(F)c(F)c(F)cc2c1=O` (centres undefined) the figure was 190 to 191 °C; with `CCOC(=O)c1c(C(F)(F)F)nc(C(F)F)c(C(=O)OC)c1NCC(F)(F)F`, 64 to 66 °C; with `CN(C(=O)CN1C(=O)C(NC(=O)Nc2cccc(C#N)c2)N=C(CN2CCCCC2)c2ccccc21)c1ccccc1` (centres undefined), 145 to 150 °C.
In the case of `CCc1cc2c(s1)-n1nc(C(N)=O)nc1C(OC)N=C2c1ccccc1Cl` (centres undefined), the melting point fell in the range of 200 to 201 °C.
In turn, `CCCSc1nc(-c2ccc(Cl)cc2)c(CCC(=O)O)o1` showed a melting point of 128 to 129 °C.
With `O=C(c1ccccc1)N1CCc2[nH]c3cccc(-c4ccccc4)c3c2CC1` the figure was 223 to 226 °C.
On to `N#CCSc1ccc([N+](=O)[O-])cc1`, for which the melting point lay within 77 to 79 °C.
For `COC(=O)C1=Cc2cc(-c3ccc(OCCOC(C)C)cc3)ccc2N(S(C)(=O)=O)CC1`, the melting point is 119 to 121 °C.
In the case of `CCCn1nc(C(C)C)c(C(N)=O)c1Cc1ccc(-c2ccccc2S(=O)(=O)NC(=O)c2ccccc2)cc1` it was 197 to 200 °C; in that of `Cc1cc(Br)c(S(C)(=O)=O)cc1C(=O)N=C(N)N`, 207 to 208 °C.
In the case of `CC(=O)SCCC(=O)N(C)C` it was 118 to 121 °C.
`CCOC(=O)C(NC(C)=O)(C(=O)OCC)[C@@H]1CC(=O)C[C@H]1NC(=O)OC(C)(C)C` (relative stereo): the melting point was 135 to 136 °C.
In the case of `CCCN(CCC)C1Cc2cccc3nc(SC)n(c23)C1` (centres undefined) it was 49 to 52 °C.
In the case of `CNC(=NC#N)NCc1cccc(-c2csc(N=C(N)N)n2)n1` it was 245 to 246 °C.
As for `COc1ccccc1CNc1ccc2cc(Nc3ncco3)ccc2n1`, the melting point came to 205 °C.
With `OCc1cnn(C(c2ccccc2)(c2ccccc2)c2ccccc2)c1` the figure was 181 to 184 °C; with `CCOc1ccccc1-c1ncc(-c2nnn[nH]2)c(=O)[nH]1`, 289 to 290 °C.
`Cc1c2c3c(ccc2nn1C)CCC3=O` displayed a melting point of 157 to 159 °C.
In the case of `Cc1nc(N2CCOCC2)c2c(n1)N(CC(O)CO)C(=O)CO2` (centres undefined) it was 153 to 155 °C; in that of `O=C(c1ccc(F)cc1)c1ccc(C(=O)c2ccc(F)cc2)cc1`, 218 to 220 °C.
With `Cc1cccc(C(=O)OCC=Cc2ccccc2)c1O` the figure was 154 °C; with `CN1C(=O)CN=C(c2ccccc2F)c2cc(NC(=O)NCCOC(C)(C)C)ccc21`, 177 °C; with `COc1ccc(N(C)C(=O)CN(C(=O)CNC(=O)Nc2cccc(C)c2)c2ccccc2)cc1`, 202 °C.
For `CCN(C/C=C/C#CC(C)(C)C)Cc1cccc(N(C)Cc2cccc(-c3ccsc3)c2)c1`, the melting point lay within 51 to 52 °C.
In the case of `CCCCCCCN(CCCCCS(=O)(=O)c1nc(-c2ccccc2)c(-c2ccccc2)[nH]1)C(=O)Nc1ccc(F)cc1F` it was 66 to 68 °C; in that of `Cc1nn2ccccc2c1C1=NNC(=O)CC1C` (centres undefined), 146 to 147 °C.
With `COc1ccc(Cn2ccnc2S)cc1Br` the figure was 188 °C; with `CC(=O)c1ccc(NCCCN2CCC(c3noc4cc(F)ccc34)CC2)c(O)c1`, 150 to 152 °C.
